No end group written: not given here.
How the values were obtained:
[1] = test system: C2C12 cells; assay: C2C12 cell proliferation (MTT method); type: cell-based, mouse; conditions: C2C12, peptide 1000 nM, 1 day, MTT; FIG. 4
Experimental: C2C12 cells, a mouse myoblast line, were cultured in Dulbecco's Modified Eagle's Medium (DMEM)+10% fetal bovine serum (FBS)+1% penicillin/streptomycin (P/S). To validate the effect of MIF peptide, C2C12 cells (2×10^3 cells/ml) were placed in a 12 well cell culture dish and attached for 24 hours, and MIF peptide (1000 nM) was treated for 1 day to observe cell proliferation by MTT method. The medium was replaced every 2 days, and the cells were cultured at 37° C.
To validate cell proliferation, the culture medium of the cells was removed, the cells were washed with DMEM, 500 μl of MTT reagent (0.5 mg/ml) dissolved in phosphate buffered saline (PBS) was added to each well, and the cells were left at 37° C. for 1 hour. The reaction solution was removed, and 1000 μl of DMSO was added to each well. Purple formazan crystals were completely dissolved in DMSO, and the absorbance was measured at 540 nm.

[2] = test system: C2C12 cells; assay: Scratch experiment, degree of cell recovery; type: cell-based, mouse; conditions: C2C12, 1000 nM peptide, 1 day in proliferation medium
Experimental: When the C2C12 cells were 100% grown, cells were scratches on the surface, treated with 1000 nM MIF1 or Ac-MIF1 peptides, and cultured for 1 day, followed by observation for a degree of cell recovery.

## Ac-VDFEAFWDWG [Ac-MIF1, MIF1 with N-terminus acetylated, 10 mer]
[1]
  cell proliferation, increase compared to cells without peptide treatment: 24%
[2]
  scratch recovery degree, increase compared to untreated cells: 28%
